In patent US12281335B2, “Methods and compositions for delivery of viral vectors across the blood-brain barrier” (priority 2017, dated 2025):
Entries after “also recorded” stand apart in the source; their conditions may differ. Ends that are not written are not given here.

How the values were obtained:
Huh7 cells = assay: AAV8 binding assay; assay type: cell-based, human; conditions: 4° C., 1 h; genome copy number normalized to GAPDH
Experimental: AAV8 binding assay. The complex of AAV8/luc and THR or human apo-transferrin protein (Sigma, 616395, USA) was incubated at 4° C. for 2 h, 10000 vg AAV8/luc virus alone or the complex was added into Huh7 cells at a cell density of 4E+05 per well for 1 h at 4° C., and then washed with DPBS 3 times. Finally, genome DNA (gDNA) was extracted from the cells with the DNeasy blood & tissue kit (Qiagen, USA) and was quantified by qPCR with luciferase primers and reference GAPDH primers.

C57BL/6 mice [1] = assay: Quantitation of luciferase expression in tissues; assay type: in vivo, mouse
Experimental: Quantitation of luciferase expression in tissues. Animals utilized for imaging studies were sacrificed after one-week post imaging work, and the tissues of the heart, liver, spleen, skeletal muscle and brain were collected, and were minced and homogenized in passive lysis buffer. Then the lysates were centrifuged at 10,000 rpm for 5 minutes to remove cellular debris. Supernatant was transferred to 96-well plates for luciferase activity analysis as described above. Total protein concentration in tissue lysates was measured using the Bradford assay (Bio-Rad Laboratories, Philadelphia, PA).

C57BL/6 mice [2] = conditions: 1E+11 vg each mouse, intravenous; 5 min to 48 h; vs AAV8/luc
Experimental: (§1) Animal study. […] Mice were administered with AAV8/Luc incubated with peptides via retro-orbital injection. Luciferase expression was imaged at the indicated time points using a Xenogen IVIS Lumina (Caliper Lifesciences, Waltham, MA) following intraperitoneal injection of D-luciferin substrate (Nanolight Pinetop, AZ). Bioluminescent images were analyzed using Living Image (PerkinElmer, Waltham, MA). At various time points after injection, blood was collected from the retro-orbital plexus, and the viral titers were tested by qPCR.

Huh7 or HEK293 cells = assay: Neutralization assay (Nab titer); assay type: cell-based, human; conditions: THR at different concentrations
Experimental: Neutralization assay. Huh7 or HEK293 cells were seeded in 48-well plates with a density of 5E+04 cells each well. The complex of AAV8/luc and different concentrations of THR was incubated at 4° C. for 2 h, then, two-fold dilutions of the mouse AAV8 sera were incubated with 1E+04vg of AAV8/luc virus or the complex of AAV8/luc and THR per cell for 1 h at 37° C. The final mixture was added into cells and incubated at 37° C. for 48 h. Cells were lysed with passive lysis buffer (Promega, Madison, WI) and luciferase activity was measured. Nab titers were defined as the highest dilution for which luciferase activity was 50% lower than serum-free controls.

mouse TfR1 = molecular target: T1, mouse TfR1 (Mus musculus, UniProt Q62351); assay: Immunofluorescence assay on CHO-TRVB cells; assay type: binding; conditions: 5-FAM-THR
T1 construct: expressed in transfected cells; host or cells: CHO-TRVB cells (devoid of endogenous TfR1)
T1 sequence (Q62351 whole entry): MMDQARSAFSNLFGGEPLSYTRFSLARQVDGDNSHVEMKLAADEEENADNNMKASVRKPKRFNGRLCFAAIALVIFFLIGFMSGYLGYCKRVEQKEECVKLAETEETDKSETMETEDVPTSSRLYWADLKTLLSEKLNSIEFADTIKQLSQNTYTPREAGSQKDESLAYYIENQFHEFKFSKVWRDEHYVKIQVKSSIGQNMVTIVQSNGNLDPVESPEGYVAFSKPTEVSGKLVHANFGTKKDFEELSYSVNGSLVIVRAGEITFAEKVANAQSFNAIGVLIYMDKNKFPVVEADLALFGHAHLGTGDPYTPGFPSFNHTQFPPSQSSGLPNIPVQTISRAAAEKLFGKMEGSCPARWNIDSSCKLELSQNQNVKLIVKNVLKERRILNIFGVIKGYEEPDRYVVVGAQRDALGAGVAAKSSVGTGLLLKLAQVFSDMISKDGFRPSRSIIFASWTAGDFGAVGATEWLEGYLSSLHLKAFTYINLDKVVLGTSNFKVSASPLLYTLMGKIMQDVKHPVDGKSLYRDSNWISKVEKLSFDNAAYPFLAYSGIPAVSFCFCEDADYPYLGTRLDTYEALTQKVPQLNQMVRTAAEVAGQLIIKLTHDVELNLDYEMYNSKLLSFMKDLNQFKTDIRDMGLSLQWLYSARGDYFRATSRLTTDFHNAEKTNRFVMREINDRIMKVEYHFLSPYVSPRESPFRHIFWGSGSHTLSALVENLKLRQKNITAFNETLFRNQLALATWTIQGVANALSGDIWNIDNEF
Experimental: Immunofluorescence. Plasmids mCherry-TFR-20 and mCherry-mTfR-20 were separately transfected into the 50-70% confluent CHO-TRVB cells grown on glass coverslips using lipofectamine 3000 reagent (Invitrogen, USA). After 48 h post-transfection, the coverslips were washed and incubated with 1 nM 5-FAM-THR at 37° C. for 1 h, then cells were acid-washed with 0.2 M glycine/HCl, pH 2.2, and fixed in 4% paraformaldehyde for 30 min at 4° C. Finally, DAPI was used at a 1:5,000 dilution for 5 min at RT. Coverslips were mounted and imaged on the Olympus IX-83 fluorescence microscope.

[3] = test system: HEK293 cells or Huh7 cells; assay: In vitro transduction assay, AAV8/luc with peptides; assay type: cell-based, human; conditions: 10000 vg AAV8/luc incubated with peptides 2 h at 4° C.; both cell lines; 48 h; vs AAV8 only
Experimental: In vitro transduction assay. At least 4-5 h prior to AAV transduction, cells were seeded in 48-well plates with a density of 1E+05 cells each well. Cells were infected with 1E+04 vector genomes (vg) of AAV8/luc virus per cell and harvested after 48 h. Luciferase activity was measured following manufacturer's instruction (Promega, Madison, WI).
The complex of AAV8 and peptides influences AAV8 transduction in vitro and in vivo. To identify the potential and functional peptides that enhanced AAV8 transduction, we screened several reported peptides as shown in Table 5 and Table 6. First, we tested the cytotoxicity of peptides at different concentrations on cells. […] After that, we performed the transduction assay in vitro. We incubated the 10000 vg AAV8/luc and peptides for 2 h at 4° C., and then applied the mixture to HEK293 cells or Huh7 cells. After 48 h, the cell lysate was collected for luciferase analysis.

C57BL/6 mice [4] = assay: In vivo luciferase imaging after retro-orbital injection of AAV8/luc with peptides; parameters: species or system mouse
Experimental: as §1

[5] = test system: human transferrin binding to AAV8 virions; assay: AAV8 competitive binding assay; conditions: pre-incubation with AAV8, then human transferrin; pull down with transferrin antibody, qPCR
Experimental: AAV8 competitive binding assay. For THR competitive binding analysis, 10 ul of Protein G resin (Thermo, USA) per system was incubated with 1 ug of human transferrin antibody or goat IgG antibody control at 4° C. overnight. […] After that, the mixture was added to the complex of protein G resin and transferrin antibody and incubated at 4° C. overnight. Finally, the complex was stringently washed three times with cold DPBS. DNA from the complex was extracted and applied for qPCR to determine AAV genome copy number per cell using luc specific primers.
To investigate whether THR also binds to the same location of AAV8 virions as human serum proteins, we performed a competitive assay. […] The transferrin antibody was used to pull down transferrin bound AAV8 virions and AAV8 gene copy number was measured by qPCR.

[6] = AAV9 brain transduction with THR after systemic administration; assay type: in vivo
C57BL/6 mice [7] = assay: Measurement of AAV genome copy number in tissue; assay type: in vivo, mouse
Experimental: Measurement of AAV genome copy number in tissue. Total gDNA from different minced tissues was isolated with the DNeasy blood & tissue kit (Qiagen, USA). Luciferase gene was measured by qPCR assay. Mouse-lamin gene served as an internal control.

With THRPPMWSPVWP-NH2 [THR] the “AAV8 virions binding to the Huh7 cells surface” value (Huh7 cells) was “dramatically increased AAV8 virions binding; also recorded: enhanced the binding ability of AAV8 dose dependently”, the “AAV8 brain transduction (luc expression and genome number)” value (C57BL/6 mice [1]; 0.1 mM peptides + 5E+10 vg AAV8/luc) was “increased AAV8 transduction in the brain” and the “luciferase expression and virus distribution in the brain, THR mixed just before injection” value (C57BL/6 mice [1]; AAV8/0.1 mM THR, no pre-incubation, vs AAV8) was “did not observe a significant difference”. The “blood clearance of AAV8” value (C57BL/6 mice [2]) was “decreasing the AAV8 clearance in the blood”, the “AAV8/luc neutralization titer (Nab titer)” value (Huh7 or HEK293 cells) was “did not interfere with the AAV8/luc neutralization titer; also recorded: does not interfere with the AAV8 biology” and the “interaction with mouse TfR1” value (mouse TfR1) was “could interact with mouse TfR1”. For the same substance, the “AAV8 transduction (luciferase)” value [3] was “significantly enhanced AAV8 transduction; also recorded: the most significant increase of AAV8 transduction”, the “AAV8 transduction in the whole body, especially brain (imaging)” value (C57BL/6 mice [4]; 0.1 mM peptide + 5E+10 vg AAV8/luc, 7th day) was “significantly increased AAV8 transduction overall; also recorded: significantly enhances AAV8 transduction in vivo, especially in the brain” and the “transgene expression in the liver (imaging)” value (C57BL/6 mice [4]; 0.1 mM peptides + 5E+10 vg AAV8/luc, retro-orbital vein, 7th day) was “higher”. The “AAV8 transduction in whole body and brain (imaging), high dose” value (C57BL/6 mice [4]; 1E+11 vg each mouse, AAV8-0.1 mM THR) was “enhanced the AAV8 transduction in both the whole body and the brain”, the “AAV8 liver transduction (imaging), THR mixed just before injection” value (C57BL/6 mice [4]; AAV8/0.1 mM THR, no pre-incubation) was “blocked AAV8 liver transduction” and the “luciferase imaging signal, dose dependence” value (C57BL/6 mice [4]; different concentrations of THR + 5E+10 particles AAV8/luc) was “stronger imaging signals; also recorded: enhances the AAV8 transduction in vivo in a dose-dependent manner”. The “inhibition of transferrin binding to AAV8” value [5] was “competes with human transferrin binding to AAV8”, the “AAV9 brain transduction after systemic administration” value [6] was “failed to enhance AAV9 brain transduction” and the “AAV genome copy number in the brain” value (C57BL/6 mice [7]; 0.1 mM peptides + 5E+10 vg AAV8/luc, vs AAV8 only) was “much higher”. For the same substance, the “gene copy number in liver, brain and spleen” value (C57BL/6 mice [7]; three groups with different THR concentrations + 5E+10 particles AAV8/luc) was “significantly higher enhancement than the control group; also recorded: more vector genome copy number in the brain”.
